Laboratory results from patent US11208412B2 (DAEGU-GYEONGBUK MEDICAL INNOVATION FOUNDATION, priority 2017, dated 2021).

target: T1, recombinant LRRK2 kinase (Homo sapiens, UniProt Q5S007); assay: LRRK2 kinase inhibition (Kinase-Glo luminescence); type: biochemical; conditions: IC50 grade; 25 μmol/L ATP, LRRKtide, 30° C. 2 hours; read-out: Enzyme activity LRRK2
T1 construct: purchased Signal Chem, Richmond, BC, Canada
Protocol: Upon completion of the reaction, an equal amount of Kinase-Glo (Promega, Madison, Wis.) solution was added thereto, followed by reaction for 40 minutes. A detection solution was added thereto, followed by further reaction at room temperature for 30 minutes. Then, IC50 of kinase was calculated by measuring the amount of luciferase using a microplate ELISA reader (Bio-Tek).

T1 sequence (Q5S007 whole entry): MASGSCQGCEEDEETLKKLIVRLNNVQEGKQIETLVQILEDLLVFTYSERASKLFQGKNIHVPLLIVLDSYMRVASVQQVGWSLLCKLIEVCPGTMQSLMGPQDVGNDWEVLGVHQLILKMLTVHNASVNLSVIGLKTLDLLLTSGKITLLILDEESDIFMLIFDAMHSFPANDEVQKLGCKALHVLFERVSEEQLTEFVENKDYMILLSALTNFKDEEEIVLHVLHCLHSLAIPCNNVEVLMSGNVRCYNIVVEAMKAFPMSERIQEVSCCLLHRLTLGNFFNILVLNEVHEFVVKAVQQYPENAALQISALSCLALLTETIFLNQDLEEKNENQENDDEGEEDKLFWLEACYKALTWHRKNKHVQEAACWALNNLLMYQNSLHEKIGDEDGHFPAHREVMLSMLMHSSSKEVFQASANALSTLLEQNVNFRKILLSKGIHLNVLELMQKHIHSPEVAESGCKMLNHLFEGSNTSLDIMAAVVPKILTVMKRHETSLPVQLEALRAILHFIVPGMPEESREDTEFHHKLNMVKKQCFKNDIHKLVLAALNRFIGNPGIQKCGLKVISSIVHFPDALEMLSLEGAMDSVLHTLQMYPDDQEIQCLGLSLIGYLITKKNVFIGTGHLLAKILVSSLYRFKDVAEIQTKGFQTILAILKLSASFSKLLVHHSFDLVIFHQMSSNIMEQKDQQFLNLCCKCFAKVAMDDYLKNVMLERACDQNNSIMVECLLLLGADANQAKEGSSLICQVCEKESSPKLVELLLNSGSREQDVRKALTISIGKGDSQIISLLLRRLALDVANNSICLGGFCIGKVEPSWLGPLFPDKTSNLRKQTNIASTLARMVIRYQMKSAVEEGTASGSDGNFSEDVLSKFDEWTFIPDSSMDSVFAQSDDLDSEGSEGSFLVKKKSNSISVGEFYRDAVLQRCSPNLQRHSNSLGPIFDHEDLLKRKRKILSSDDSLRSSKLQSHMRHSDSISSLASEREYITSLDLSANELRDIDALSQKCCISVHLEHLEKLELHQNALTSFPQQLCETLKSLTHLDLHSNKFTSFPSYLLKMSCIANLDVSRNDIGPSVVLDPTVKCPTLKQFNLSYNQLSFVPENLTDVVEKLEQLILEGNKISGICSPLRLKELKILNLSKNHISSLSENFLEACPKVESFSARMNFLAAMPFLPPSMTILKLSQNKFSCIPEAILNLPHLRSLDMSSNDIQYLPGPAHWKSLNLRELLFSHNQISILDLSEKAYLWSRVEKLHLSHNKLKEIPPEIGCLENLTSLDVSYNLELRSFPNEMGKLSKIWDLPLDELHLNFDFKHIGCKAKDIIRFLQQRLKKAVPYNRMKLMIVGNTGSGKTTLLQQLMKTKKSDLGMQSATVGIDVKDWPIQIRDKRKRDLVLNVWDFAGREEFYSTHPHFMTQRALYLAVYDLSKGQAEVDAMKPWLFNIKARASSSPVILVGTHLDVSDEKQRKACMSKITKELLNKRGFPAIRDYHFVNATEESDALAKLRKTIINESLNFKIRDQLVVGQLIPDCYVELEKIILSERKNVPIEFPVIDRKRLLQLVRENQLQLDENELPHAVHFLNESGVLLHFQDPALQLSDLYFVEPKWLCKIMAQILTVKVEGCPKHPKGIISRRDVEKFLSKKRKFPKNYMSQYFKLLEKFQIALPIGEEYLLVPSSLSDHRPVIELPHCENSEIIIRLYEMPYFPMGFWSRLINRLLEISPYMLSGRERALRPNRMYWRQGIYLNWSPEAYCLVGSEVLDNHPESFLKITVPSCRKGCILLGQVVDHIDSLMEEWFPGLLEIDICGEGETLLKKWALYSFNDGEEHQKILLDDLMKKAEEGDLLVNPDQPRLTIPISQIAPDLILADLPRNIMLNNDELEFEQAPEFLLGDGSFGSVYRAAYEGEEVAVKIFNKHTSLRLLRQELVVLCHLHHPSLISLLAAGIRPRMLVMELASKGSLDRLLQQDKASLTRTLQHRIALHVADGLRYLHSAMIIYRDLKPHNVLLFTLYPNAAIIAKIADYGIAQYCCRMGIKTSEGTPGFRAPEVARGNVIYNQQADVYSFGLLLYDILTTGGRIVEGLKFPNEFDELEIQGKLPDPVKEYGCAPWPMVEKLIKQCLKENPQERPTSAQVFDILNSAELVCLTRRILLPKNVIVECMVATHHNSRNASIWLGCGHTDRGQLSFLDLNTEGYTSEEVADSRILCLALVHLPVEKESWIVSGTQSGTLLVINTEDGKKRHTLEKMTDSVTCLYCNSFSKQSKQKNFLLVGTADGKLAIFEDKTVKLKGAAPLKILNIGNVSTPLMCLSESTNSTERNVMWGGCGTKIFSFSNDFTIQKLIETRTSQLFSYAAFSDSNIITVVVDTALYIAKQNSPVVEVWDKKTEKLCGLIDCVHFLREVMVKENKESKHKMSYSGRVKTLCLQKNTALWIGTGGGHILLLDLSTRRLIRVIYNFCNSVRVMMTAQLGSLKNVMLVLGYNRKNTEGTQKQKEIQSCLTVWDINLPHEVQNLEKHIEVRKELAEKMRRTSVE

IC50 [nM]	Compound
< 10	CCNc1nc(Nc2cnn([C@H]3CCN(C4COC4)C[C@@H]3F)c2Cl)nc2[nH]cc(C#N)c12 [Example 51, 2-((5-chloro-1-((3S,4S)-3-fluoro-1-(oxetane-3-yl)piperidine-4-yl)-1H-pyrazole-4-yl)amino)-4-(ethylamino)-7H-pyrrolo[2,3-d]pyrimidine-5-carbonitrile]
< 10	CCNc1nc(Nc2cnn([C@H]3CCN(C4COC4)C[C@@H]3F)c2)nc2[nH]cc(C#N)c12 [Example 53]
< 10	CC1(Nc2nc(Nc3cnn([C@H]4CCN(C5COC5)C[C@@H]4F)c3)nc3[nH]cc(C#N)c23)CC1 [Example 54, 2-((1-((3S,4S)-3-fluoro-1-(oxetane-3-yl)piperidine-4-yl)-1H-pyrazole-4-yl)amino)-4-((methylcyclopropyl)amino)-7H-pyrrolo[2,3-d]pyrimidine-5-carbonitrile]
< 10	CNc1nc(Nc2ccc(C(=O)NC3CCN(C)CC3)cc2OC)nc2[nH]cc(C#N)c12 [Example 55, 4-((5-cyano-4-(methylamino)-7H-pyrrolo[2,3-d]pyrimidine-2-yl)amino)-3-methoxy-N-(1-methylpiperidine-4-yl)benzamide]
< 10	CCNc1nc(Nc2ccc(C(=O)NC3CCN(C)CC3)cc2OC)nc2[nH]cc(C#N)c12 [Example 56, 4-((5-cyano-4-(ethylamino)-7H-pyrrolo[2,3-d]pyrimidine-2-yl)amino)-3-methoxy-N-(1-methylpiperidine-4-yl)benzamide]
< 10	CNc1nc(Nc2ccc(C(=O)N3CCN(C4COC4)CC3)cc2OC)nc2[nH]cc(C#N)c12 [Example 57]
< 10	CCNc1nc(Nc2ccc(C(=O)N3CCN(C4COC4)CC3)cc2OC)nc2[nH]cc(C#N)c12 [Example 58, 4-(ethylamino)-2-((2-methoxy-4-(4-(oxetane-3-yl)piperazine-1-carbonyl)phenyl)amino)-7H-pyrrolo[2,3-d]pyrimidine-5-carbonitrile]
< 10	CNc1nc(Nc2cnn(CCOC)c2Cl)nc2[nH]cc(C#N)c12 [Example 59, 2-((5-chloro-1-(2-methoxyethyl)-1H-pyrazole-4-yl)amino)-4-(methylamino)-7H-pyrrolo[2,3-d]pyrimidine-5-carbonitrile]
10 to 100	CCNc1nc(Nc2ccc(C(=O)NC3CCN(C4COC4)CC3)cc2OC)nc2[nH]cc(C#N)c12 [Example 60, 4-((5-cyano-4-(ethylamino)-7H-pyrrolo[2,3-d]pyrimidine-2-yl)amino)-3-methoxy-N-(1-(oxetane-3-yl)piperidine-4-yl)benzylamide]
10 to 100	CNc1nc(Nc2ccc(C(=O)NC3CCN(C4COC4)CC3)cc2OC)nc2[nH]cc(C#N)c12 [Example 61, 4-((5-cyano-4-(methylamino)-7H-pyrrolo[2,3-d]pyrimidine-2-yl)amino)-3-methoxy-N-(1-(oxetane-3-yl)piperidine-4-yl)benzylamide]
< 10	CCNc1nc(Nc2cnn(CCOC)c2Cl)nc2[nH]cc(C#N)c12 [Example 62, 2-((5-chloro-1-(2-methoxyethyl)-1H-pyrazole-4-yl)amino)-4-(ethylamino)-7H-pyrrolo[2,3-d]pyrimidine-5-carbonitrile]
< 10	CNc1nc(Nc2cc(F)c(C(=O)NC3CCN(C4COC4)CC3)cc2OC)nc2[nH]cc(C#N)c12 [Example 63, 4-((5-cyano-4-(methylamino)-7H-pyrrolo[2,3-d]pyrimidine-2-yl)amino)-2-fluoro-5-methoxy-N-(1-(oxetane-3-pyrrolidine-1-yl)piperidine-4-yl)benzamide]
< 10	CNc1nc(Nc2cc(F)c(C(=O)NC3CCN(C)CC3)cc2OC)nc2[nH]cc(C#N)c12 [Example 65, 4-((5-cyano-4-(methylamino)-7H-pyrrolo[2,3-d]pyrimidine-2-yl)amino)-2-fluoro-5-methoxy-N-(1-methylpiperidine-4-yl)benzamide]
10 to 100	CCNc1nc(Nc2cc(F)c(C(=O)NC3CCN(C)CC3)cc2OC)nc2[nH]cc(C#N)c12 [Example 66, 4-((5-cyano-4-(ethylamino)-7H-pyrrolo[2,3-d]pyrimidine-2-yl)amino)-2-fluoro-5-methoxy-N-(1-methylpiperidine-4-yl)benzamide]
< 10	CNc1nc(Nc2cc(F)c(C(=O)NC3CCN(C(C)C)CC3)cc2OC)nc2[nH]cc(C#N)c12 [Example 67, 4-((5-cyano-4-(methylamino)-7H-pyrrolo[2,3-d]pyrimidine-2-yl)amino)-2-fluoro-N-(1-isopropylpiperidine-4-yl)-5-methoxybenzamide]
< 10	CCNc1nc(Nc2cc(F)c(C(=O)NC3CCN(C(C)C)CC3)cc2OC)nc2[nH]cc(C#N)c12 [Example 68, 4-((5-cyano-4-(ethylamino)-7H-pyrrolo[2,3-d]pyrimidine-2-yl)amino)-2-fluoro-N-(1-isopropylpiperidine-4-yl)-5-methoxybenzamide]

IC50 [nM]	Compound
< 10	CNc1nc(Nc2cnn(CCO)c2)nc2[nH]cc(C#N)c12 [Example 69, 2-((1-(2-hydroxyethyl)-1H-pyrazole-4-yl)amino)-4-(methylamino)-7H-pyrrolo[2,3-d]pyrimidine-5-carbonitrile]
< 10	CCNc1nc(Nc2cnn(CCO)c2)nc2[nH]cc(C#N)c12 [Example 70, 4-(ethylamino)-2-((1-(2-hydroxyethyl)-1H-pyrazole-4-yl)amino)-7H-pyrrolo[2,3-d]pyrimidine-5-carbonitrile]
< 10	CNc1nc(Nc2cn(C(C)(C)C#N)nc2Cl)nc2[nH]cc(C#N)c12 [Example 71, 2-((3-chloro-1-(2-cyanopropane-2-yl)-1H-pyrazole-4-yl)amino)-4-(methylamino)-7H-pyrrolo[2,3-d]pyrimidine-5-carbonitrile]
< 10	CCNc1nc(Nc2cn(C(C)(C)C#N)nc2Cl)nc2[nH]cc(C#N)c12 [Example 72, 2-((3-chloro-1-(2-cyanopropane-2-yl)-1H-pyrazole-4-yl)amino)-4-(ethylamino)-7H-pyrrolo[2,3-d]pyrimidine-5-carbonitrile]
< 10	CNc1nc(Nc2cnn(C(C)(C)C#N)c2Cl)nc2[nH]cc(C#N)c12 [Example 73, 2-((5-chloro-1-(2-cyanopropane-2-yl)-1H-pyrazole-4-yl)amino)-4-(methylamino)-7H-pyrrolo[2,3-d]pyrimidine-5-carbonitrile]
< 10	CCNc1nc(Nc2cnn(C(C)(C)C#N)c2Cl)nc2[nH]cc(C#N)c12 [Example 74, 2-((5-chloro-1-(2-cyanopropane-2-yl)-1H-pyrazole-4-yl)amino)-4-(ethylamino)-7H-pyrrolo[2,3-d]pyrimidine-5-carbonitrile]
< 10	CNc1nc(Nc2ccc(C(=O)N3CCN(C)C[C@H]3C)cc2OC)nc2[nH]cc(C#N)c12 [Example 75, (R)-2-((4-(2,4-dimethylpiperazine-1-carbonyl)-2-methoxyphenyl)amino)-4-(methylamino)-7H-pyrrolo[2,3-d]pyrimidine-5-carbonitrile]
< 10	CCNc1nc(Nc2ccc(C(=O)N3CCN(C)C[C@H]3C)cc2OC)nc2[nH]cc(C#N)c12 [Example 76, (R)-2-((4-(2,4-dimethylpiperazine-1-carbonyl)-2-methoxyphenyl)amino)-4-(ethylamino)-7H-pyrrolo[2,3-d]pyrimidine-5-carbonitrile]
> 100	CNc1nc(Nc2c(C)nn(C(C)(C)C#N)c2C)nc2[nH]cc(C#N)c12 [Example 77, 2-((1-(2-cyanopropane-2-yl)-3,5-dimethyl-1H-pyrazole-4-yl)amino)-4-(methylamino)-7H-pyrrolo[2,3-d]pyrimidine-5-carbonitrile]
> 100	CCNc1nc(Nc2c(C)nn(C(C)(C)C#N)c2C)nc2[nH]cc(C#N)c12 [Example 78, 2-((1-(2-cyanopropane-2-yl)-3,5-dimethyl-1H-pyrazole-4-yl)amino)-4-(ethylamino)-7H-pyrrolo[2,3-d]pyrimidine-5-carbonitrile]
< 10	CCNc1nc(Nc2cc(F)c(C(=O)N3CCN(C)C[C@H]3C)cc2OC)nc2[nH]cc(C#N)c12 [Example 79, (R)-2-((4-(2,4-dimethylpiperazine-1-carbonyl)-5-fluoro-2-methoxyphenyl)amino)-4-(ethylamino)-7H-pyrrolo[2,3-d]pyrimidine-5-carbonitrile]
10 to 100	CNc1nc(Nc2cc(F)c(C(=O)N3CCN(C)C[C@H]3C)cc2OC)nc2[nH]cc(C#N)c12 [Example 80, (R)-2-((4-(2,4-dimethylpiperazine-1-carbonyl)-5-fluoro-2-methoxyphenyl)amino)-4-(methylamino)-7H-pyrrolo[2,3-d]pyrimidine-5-carbonitrile]
10 to 100	COc1cc(C(=O)NC2CCN(C3COC3)CC2)c(F)cc1Nc1nc(NC2(C)CC2)c2c(C#N)c[nH]c2n1 [Example 81, 4-((5-cyano-4-((1-methylcyclopropyl)amino)-7H-pyrrolo[2,3-]pyrimidine-2-yl)amino)-2-fluoro-5-methoxy-N-(1-(oxetane-3-yl)piperidine-4-yl)benzamide]
10 to 100	COc1cc(C(=O)NC2CCN(C(C)C)CC2)c(F)cc1Nc1nc(NC2(C)CC2)c2c(C#N)c[nH]c2n1 [Example 82, 4-((5-cyano-4-((1-methylcyclopropyl)amino)-7H-pyrrolo[2,3-d]pyrimidine-2-yl)amino)-2-fluoro-N-(1-isopropylpiperidine-4-yl)-5-methoxybenzamide]
< 10	COc1cc(C(=O)NC2CCN(C)CC2)c(F)cc1Nc1nc(NC2(C)CC2)c2c(C#N)c[nH]c2n1 [Example 83, 4-((5-cyano-4-((1-methylcyclopropyl)amino)-7H-pyrrolo[2,3-d]pyrimidine-2-yl)amino)-2-fluoro-5-methoxy-N-(1-methylpiperidine-4-yl)benzamide]
< 10	COc1cc(C(=O)N2CCOCC2)ccc1Nc1nc(OC2CCOCC2)c2c(C#N)c[nH]c2n1 [Example 84, 2-((2-methoxy-4-(morpholine-4-carbonyl)phenyl)amino)-4-((tetrahydro-2H-pyran-4-yl)oxy)-7H-pyrrolo[2,3-d]pyrimidine-5-carbonitrile]
